Laboratory results reported in PMC6264278, “Corydaline Inhibits Multiple Cytochrome P450 and UDP-Glucuronosyltransferase Enzyme Activities in Human Liver Microsomes” (Molecules, 2011).

Target: T1, UGT1A4 (Homo sapiens, UniProt P22310)
T1 construct: using pooled human liver microsomes; tissue BD Gentest Co. H161; host or cells: pooled human liver microsomes
T1 sequence (P22310 29-534): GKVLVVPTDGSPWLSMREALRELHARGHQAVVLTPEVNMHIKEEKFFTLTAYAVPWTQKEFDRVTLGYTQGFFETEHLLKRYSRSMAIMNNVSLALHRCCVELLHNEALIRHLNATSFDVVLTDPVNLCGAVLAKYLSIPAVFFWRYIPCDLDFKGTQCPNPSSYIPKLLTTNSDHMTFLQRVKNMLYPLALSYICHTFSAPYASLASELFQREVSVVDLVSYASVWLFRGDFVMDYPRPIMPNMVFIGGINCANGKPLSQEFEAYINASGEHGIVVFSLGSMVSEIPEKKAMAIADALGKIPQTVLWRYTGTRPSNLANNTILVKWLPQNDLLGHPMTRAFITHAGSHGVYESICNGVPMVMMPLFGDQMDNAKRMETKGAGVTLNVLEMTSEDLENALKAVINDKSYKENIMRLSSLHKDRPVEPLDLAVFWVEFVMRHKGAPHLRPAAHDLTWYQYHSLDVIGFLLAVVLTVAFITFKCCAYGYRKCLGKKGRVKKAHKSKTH
Assay: UGT1A4 trifluoperazine N-glucuronidation inhibition in pooled human liver microsomes
Type: in vitro ADME
Conditions: pooled human liver microsomes (H161), 5 μM trifluoperazine, no inhibition at 1,000 μM of corydaline
Procedure: The inhibitory potencies (IC50 values) of corydaline were also determined with UGT assays in the presence and absence of corydaline (final concentrations of 1–1,000 μM with acetonitrile concentration less than 0.5% v/v) using pooled human liver microsomes. 17β-Estradiol 3-glucuronidation, trifluoperazine glucuronidation, propofol glucuronidation, and azidothymidine glucuronidation activities were determined as probe activities for UGT1A1, UGT1A4, UGT1A9, and UGT2B7, respectively, using LC/MS/MS. Incubation mixtures were prepared in a total volume of 100 μL, as follows: Pooled human liver microsomes (0.2 mg/mL for 17β-estradiol, trifluoperazine and azidothymidine; 0.1 mg/mL for propofol), 2 mM UDPGA, 25 μg/mL alamethicin, 10 mM MgCl2, 50 mM tris buffer (pH 7.4), UGT-isoform specific probe substrate (20 μM 17β-estradiol for UGT1A1, 5 μM trifluoperazine for UGT1A4, 10 μM propofol for UGT1A9, or 100 μM azidothymidine for UGT2B7), and various concentrations of corydaline (1−1000 μM). […]
Glucuronides produced from UGT isoform-specific substrates were respectively determined by LC/MS/MS. […] Quantification was performed by SRM of the [M+H]^+ ion for trifluoperazine glucuronide and azidothymidine glucuronide or [M−H]^− for 17β-estradiol 3-glucuronide and propofol glucuronide and the related product ion for each metabolite. […]

IC50, UGT1A4 trifluoperazine N-glucuronidation: not inhibited
IC50, UGT1A4 trifluoperazine N-glucuronidation (listed as corydaline): No inhibition *
SMILES: COc1cc2c(cc1OC)C1C(C)c3ccc(OC)c(OC)c3CN1CC2 (centres unmarked) [Corydaline, 2,3,9,10-tetramethoxy-13-methyl-5,8,13,13a-tetrahydro-6H-isoquino[3,2-a]isoquinoline]
